US11465989B2, “Guanidine compounds and use thereof” (IMMUNOMET THERAPEUTICS INC., priority 2014, dated 2022)
Structures can show the parent of a compound that is named as a salt.

Legend:
A549 cells [1] = test: Inhibition of OCR (XF Analyzer); type: cell-based; conditions: Homo sapiens, A549, 24 h
Source text: The electron transfer complex in mitochondria is composed of 5 complexes. The complex I accept electrons from NADH produced from glycolysis and TCA cycle and the electrons move to complex […] and the electron is finally transferred to O2 and water molecule is generated. During the electron transfer, proton gradient is generated and the chemical gradient is a driving source to synthesize ATP at complex V. The mitochondrial inhibition of complex I indirectly assessed by measuring the oxygen consumption rate (OCR) at complex IV. […] The solution outside of cells becomes acidic (lower pH) as lactate is transported to outside of cells. OCR and Extracellular acidification rate (ECAR) are determined by XF Analyzer (Seahorse Biosciences).
A549 cells were purchased from American Type Tissue Culture Collection ([…]) and cultured in RPMI 1640 supplied with 10% fetal bovine serum (FBS) and antibiotic-antimycotic (Lifetech, CA). A549 cells were separated with 0.5% Trypsin-EDTA and 3,000 cells were plated on 1 mg/ml poly-D-lysine (Sigma, P6407) coated XF 96 well […]. A549 cells were allowed to adhere to the wells for 24 hours under the condition of temperature, 37° C. and 5% CO2 The sensor cartridge of XF Analyzer was soaked in 200 Ad of Calibrant solution (Seahorse, MA) in a clear 96-well plate at 37° C. for 24 hours. The compounds of the present invention were diluted with RPMI 1640 without FBS, transferred to A549 cells on XF 96 well plate, and incubated further for 23 hours at 37° C. and 5% CO2. After incubation, the compound solution was exchanged with pre-warmed and pH adjusted (pH7.4) XF assay media (Seahorse) supplied with 15 mM D-glucose (Sigma), 15 mM sodium pyruvate (Lifetechnologies, CA) and 4 mM L-glutamine (Lifetechnologies, CA). The compounds of present invention were prepared in XF Assay media and added to the assay plate. The assay plate was equilibrated in XF Analyzer for 1 hour, and the reading were started by sensor cartridge. The cytotoxicity assay was followed using Cyquant (Lifetechnologies, CA) in order to calibrate the inhibition with cytotoxicity of compounds. The concentrations of the compounds were tested at […] and IC50 value was obtained from the inhibited values. That is, from OCR inhibition values at each concentration of the compound, IC50 was calculated according to Prism's dose response curve fitting.
In Table 1, the levels of OCR IC50 are evaluated by the following.

SK-MEL-239 tumor cells = test: In vivo xenograft model using SK-MEL-239 cell; set-up: species or system mice
Procedure: The compounds of the present invention were evaluated in vivo using xenograft human cancer model in mice. The compounds of invention were administrated orally or interperitoneal injection. Tumor cell lines were cultured in vitro as monolayer culture. Using female BALB/c nude mice with immune system compromised, each mouse was inoculated subcutaneously at the right flank with tumor cells for tumor development. The treatment was started when the tumor size reaches approximately 100 mm^3
The SK-MEL-239 tumor cell line was maintained in vitro as monolayer in RPMII 640 medium supplemented with 10% heat inactivated fetal bovine serum, 100 U/ml penicillin and 100 μg/ml streptomycin, and L-glutamine (2 mM) at 37° C. in an atmosphere of 5% CO2 in air. The tumor cells were routinely subcultured twice weekly with 0.5% trypsin-EDTA treatment. The cells growing in an exponential growth phase were harvested and counted for tumor cell inoculation.
Female BALB/c nude mice aged 6-8 weeks and weighing approximately 18-22 g were purchased from Vital River. Each mouse was inoculated subcutaneously at the right flank with SK-MEL-239 tumor cells (1×10^7) in 0.1 ml of PBS for tumor development. The treatment was started, when the tumor size reaches approximately 100 mm^3. 100 mg/kg of Phenformin and 15 mg/kg of Vemurafenib were administered via oral gavage twice daily and 100 mg/kg HLPOI (HL176001001) was administered once daily for 21 days. Tumor volumes were measured twice a week in two dimensions using a caliper, and the volume was expressed in mm^3 using the formula: V=0.5×a×b^2, where a and b were the long and short diameters of the tumor, respectively. The T/C value (in percentage) was an indication of antitumor effect. T and C were the mean volumes of the treated and control groups, respectively.

U937 cell = test: In vitro combination study with GDC0941 on U937 cell; type: cell-based
Procedure: (§1) A549, H1975 (CRL5908, ATCC) or U937 cell (CRL1593.2™, ATCC) lines were cultured in RPMI 1640 media (Lifetechnologies, CA) with supplement of 10% FBS and antibiotic-antimycotic (Lifetechnologies, CA). Dasatinib (Combi-Blocks, San Diego, Calif.) is Bcr-Abl-tyrosine kinase inhibitor and Src family tyrosine kinase inhibitor approved for CML treatment. GDC094 (Selleckchem, Houston, Tex.) is a pan-PI3K inhibitor and effective in various cancer cells. H1975 or A549 cells were dissociated from culture plate using 0.5% trypsin-EDTA (Lifetechnologies, CA) and were suspended. U937 cells were spun down using centrifugation. […]
(§2) Among four concentrations of the compounds of present invention, the highest concentration was set to IC80 and the lowest concentration was approximately IC30. […] 100 μl of DMSO was added after removing MTT solution from each well, and were read by VICTOR X3 Multilabel Counter at the wavelength of 550 nm.
(§3) For the analysis of U937 cell viability, 20 μl of Celltiter96® AQueous one solution (MTS, Promega, Madison, Wis.) were added to each well, and plates were incubated at 37° C. and 5% CO2. After 2 hours later, plates read by VICTOR X3 Multilabel Counter at the wavelength of 490 nm. The combination index (CI value) was calculated using Calcusyn (Biosoft, UK).

A549 cell = test: In vitro combination study with GDC0941 on A549 cell; type: cell-based
Procedure: as §1, §2, §3

A549 cells [2] = test: In vitro combination study with Dasatinib on A549 cell; type: cell-based; conditions: in combination with 0.05 μM of Dasatinib, 72-hour treatment
Procedure: as §1, §2, §3

H1975 cell = test: In vitro combination study with Dasatinib on H1975 cell; type: cell-based; conditions: 0.2 μM of Dasatinib, 8 μM or 40 μM of Example 1, 40 μM or 200 μM of Example 104
Procedure: as §1, §2, §3

[3] = Dosing 100 mg/kg, once daily, Day 28

Structure (SMILES): N=C(N)NC(=N)NCCc1ccc(Cl)c(Cl)c1 [Example 1, N-1-(3,4-dichloro)phenethylbiguanide hydrochloride]
- IC50 (A549 cells [1]): > 5 µM
- tumor volume compared to the control group (SK-MEL-239 tumor cells; 100 mg/kg, Phenformin twice daily, Example 1 once daily): significant reduction of tumor volume
- T/C (Day 28, %) (SK-MEL-239 tumor cells; [3]): 65.4%
- Tumor Volume (Day 28, mm^3, a) (SK-MEL-239 tumor cells; [3]): 1,869 ± 82 mm^3
- tumor volume compared to the single administration of Vemurafenib (SK-MEL-239 tumor cells; in combination with 15 mg/kg of Vemurafenib): reduced the tumor volume
- CI value (combination index) (U937 cell): lower than 1
- CI value (combination index) (A549 cell): lower than 1
- CI value (combination index) (A549 cells [2]): 0.289
- combination therapy effect with Dasatinib (H1975 cell): low combination therapy effect
